From patent US20250197409A1, “BIFUNCTIONAL COMPOUND AND PHARMACEUTICAL COMPOSITION COMPRISING THE BIFUNCTIONAL COMPOUND, AND METHOD FOR TREATING ANDROGEN RECEPTOR RELATED DISEASE BY USING THE SAME” (ANHORN MEDICINES CO., LTD., priority 2022, published 2025) come the findings set out here.

Where two headings read alike, the source gives them in different places.

The experiment concerns the target T1, androgen receptor (Homo sapiens, UniProt P10275, T878A).
T1 construct: host or cells: LNCaP.FGC
The experiment in a line: Androgen receptor degradation assay using Western blot analysis. It is filed as cell-based. Summed up:
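LNCaP.FGC cells (2×10^5/well) treated with 10-fold serial dilutions in RPMI from 100 nM stock; untreated cells as negative control. AR Western signal normalized to GAPDH, expressed as % remaining versus untreated (100%). DC50 derived from calibration curve of serial dilutions.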
Background: A western blot detects proteins with antibodies after separation by electrophoresis.

Setting [1] is: 24 h, read-out: Androgen Receptor Remaining (%), LNCaP.FGC cells, 100 nM, 24 hr, normalized to GAPDH, untreated cells = 100%.
Setting [2] is: read-out: AR DC50 (concentration needed for 50% AR degradation); LNCaP.FGC cells, serial 10x dilutions from 100 nM.
[3] abbreviates: LNCaP.FGC cells, serial 10x dilutions from 100 nM; read-out: AR DC50 (concentration needed for 50% AR degradation).

T1 sequence (P10275 whole entry T878A): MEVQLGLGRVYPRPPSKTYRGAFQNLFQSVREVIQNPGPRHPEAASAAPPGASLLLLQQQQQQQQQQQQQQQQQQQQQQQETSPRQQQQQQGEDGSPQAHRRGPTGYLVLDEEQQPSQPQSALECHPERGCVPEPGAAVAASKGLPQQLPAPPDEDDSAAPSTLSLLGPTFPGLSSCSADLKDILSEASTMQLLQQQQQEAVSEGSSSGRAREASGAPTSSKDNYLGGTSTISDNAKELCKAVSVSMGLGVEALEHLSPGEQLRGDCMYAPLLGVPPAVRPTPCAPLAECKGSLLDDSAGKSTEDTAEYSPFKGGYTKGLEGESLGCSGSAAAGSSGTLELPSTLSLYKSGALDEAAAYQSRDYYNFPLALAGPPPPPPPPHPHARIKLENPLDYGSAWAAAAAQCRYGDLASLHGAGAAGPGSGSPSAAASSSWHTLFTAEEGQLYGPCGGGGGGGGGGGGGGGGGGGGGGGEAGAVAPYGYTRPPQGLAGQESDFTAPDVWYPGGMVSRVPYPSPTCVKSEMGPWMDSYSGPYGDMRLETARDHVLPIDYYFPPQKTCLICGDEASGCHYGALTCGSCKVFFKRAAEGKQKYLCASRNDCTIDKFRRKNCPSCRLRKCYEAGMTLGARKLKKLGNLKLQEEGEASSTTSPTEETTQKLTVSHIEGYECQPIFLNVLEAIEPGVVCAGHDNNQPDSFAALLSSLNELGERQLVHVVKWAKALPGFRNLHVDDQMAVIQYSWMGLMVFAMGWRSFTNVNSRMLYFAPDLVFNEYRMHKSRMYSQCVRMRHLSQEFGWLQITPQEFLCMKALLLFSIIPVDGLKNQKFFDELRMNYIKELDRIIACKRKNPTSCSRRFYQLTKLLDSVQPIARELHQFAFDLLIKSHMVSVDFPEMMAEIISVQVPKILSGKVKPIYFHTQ
T1 sequence (Q96SW2 whole entry partner): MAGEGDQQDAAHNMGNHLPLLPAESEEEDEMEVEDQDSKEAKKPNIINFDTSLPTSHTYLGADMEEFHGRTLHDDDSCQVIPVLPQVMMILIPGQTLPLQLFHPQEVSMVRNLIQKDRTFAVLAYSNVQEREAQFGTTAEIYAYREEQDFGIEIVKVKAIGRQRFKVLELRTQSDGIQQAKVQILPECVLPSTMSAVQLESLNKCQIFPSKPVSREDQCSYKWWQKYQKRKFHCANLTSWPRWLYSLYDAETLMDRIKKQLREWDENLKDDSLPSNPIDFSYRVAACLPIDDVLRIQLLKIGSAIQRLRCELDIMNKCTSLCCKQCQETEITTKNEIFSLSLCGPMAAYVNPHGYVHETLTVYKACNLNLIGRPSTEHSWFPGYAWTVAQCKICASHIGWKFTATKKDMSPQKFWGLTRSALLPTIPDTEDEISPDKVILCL

As for `CCn1c2c(c3ccc(OCCCCN4CCN(c5ccc(C(=O)N[C@H]6CC[C@H](Oc7ccc(C#N)c(Cl)c7)CC6)nn5)CC4=O)cc31)C(=O)N(C1CCC(=O)NC1=O)C2=O` (stereo partly drawn) [Compound 149], the remaining activity at 0.1 µM under setting [1] stood at 11%.

On to `CCn1c2c(c3ccc(OCCCCN4CCN(c5ccc(C(=O)N[C@H]6CC[C@H](N(C)c7ccc(C#N)c(Cl)c7)CC6)nn5)CC4=O)cc31)C(=O)N(C1CCC(=O)NC1=O)C2=O` (stereo partly drawn) [Compound 150], for which the remaining activity at 0.1 µM under setting [1] was 40%. Regarding `CCn1c2c(c3ccc(OCCCN4CCN(c5ccc(C(=O)N[C@H]6CC[C@H](Oc7ccc(C#N)c(Cl)c7)CC6)nn5)CC4=O)cc31)C(=O)N(C1CCC(=O)NC1=O)C2=O` (stereo partly drawn) [Compound 151], the remaining activity at 0.1 µM under setting [1] turned out to be 57%.

As to `CCn1c2c(c3ccc(OCCOC4CCC5(CC4)CN(c4ccc(C(=O)N[C@H]6CC[C@H](Oc7ccc(C#N)c(Cl)c7)CC6)nn4)C5)cc31)C(=O)N(C1CCC(=O)NC1=O)C2=O` (stereo partly drawn) [Compound 152], the remaining activity at 0.1 µM under setting [1] is 45%. Moreover, the DC50 under setting [2] lay within 25 to 100 nM. For `CCn1c2c(c3ccc(OCCOC4CCN(c5ccc(C(=O)N[C@H]6CC[C@H](Oc7ccc(C#N)c(Cl)c7)CC6)nn5)CC4)cc31)C(=O)N(C1CCC(=O)NC1=O)C2=O` (stereo partly drawn) [Compound 153], in that order: 109% and 10 to 25 nM. On the same counts, the results for `CCn1c2c(c3ccc(OCCOC4CCN(c5ccc(C(=O)N[C@H]6CC[C@H](N(C)c7ccc(C#N)c(Cl)c7)CC6)nn5)CC4)cc31)C(=O)N(C1CCC(=O)NC1=O)C2=O` (stereo partly drawn) [Compound 154] are 33% and 10 to 25 nM.

For `CCn1c2c(c3ccc(OCCCOC4CCN(c5ccc(C(=O)N[C@H]6CC[C@H](N(C)c7ccc(C#N)c(Cl)c7)CC6)nn5)CC4)cc31)C(=O)N(C1CCC(=O)NC1=O)C2=O` (stereo partly drawn) [Compound 155], the remaining activity at 0.1 µM under setting [1] is 19%. For the same molecule, the DC50 under setting [2] lay within 10 to 25 nM.

For the molecule `CCn1c2c(c3ccc(OCCOC4CCC5(CC4)CN(c4ccc(C(=O)N[C@H]6CC[C@H](N(C)c7ccc(C#N)c(Cl)c7)CC6)nn4)C5)cc31)C(=O)N(C1CCC(=O)NC1=O)C2=O` (stereo partly drawn) [Compound 156], the remaining activity at 0.1 µM under setting [1] is 37%. Also, the DC50 under setting [2] is 25 to 100 nM.

Regarding `CCn1c2c(c3ccc(OCCCN4CCC(C5CCN(c6ccc(C(=O)N[C@H]7CC[C@H](Oc8ccc(C#N)c(Cl)c8)CC7)nn6)CC5)CC4)cc31)C(=O)N(C1CCC(=O)NC1=O)C2=O` (stereo partly drawn) [Compound 157], under setting [1], the remaining activity at 0.1 µM amounted to 18%. For the same molecule, under setting [2], the DC50 lay in the range of 10 to 25 nM.

`CCn1c2c(c3ccc(OCCN4CCC(C5CCN(c6ccc(C(=O)N[C@H]7CC[C@H](Oc8ccc(C#N)c(Cl)c8)CC7)nn6)CC5)CC4)cc31)C(=O)N(C1CCC(=O)NC1=O)C2=O` (stereo partly drawn) [Compound 158]: the remaining activity at 0.1 µM under setting [1] is 13%. The DC50 under setting [2] is 10 to 25 nM. On the same counts, the results for `CCn1c2c(c3ccc(OCCCOC4CCN(c5ccc(C(=O)N[C@H]6CC[C@H](Oc7ccc(C#N)c(Cl)c7)CC6)nn5)CC4)cc31)C(=O)N(C1CCC(=O)NC1=O)C2=O` (stereo partly drawn) [Compound 159] are 8% and 25 to 100 nM.

For the molecule `CCn1c2c(c3ccc(OCCCN4CCC5(C4)CN(c4ccc(C(=O)N[C@H]6CC[C@H](Oc7ccc(C#N)c(Cl)c7)CC6)nn4)C5)cc31)C(=O)N(C1CCC(=O)NC1=O)C2=O` (stereo partly drawn) [Compound 160], the remaining activity at 0.1 µM under setting [1] was 17%. Under setting [2], the DC50 is less than 10 nM. As to `CCn1c2c(c3ccc(OCCN4CCC5(C4)CN(c4ccc(C(=O)N[C@H]6CC[C@H](Oc7ccc(C#N)c(Cl)c7)CC6)nn4)C5)cc31)C(=O)N(C1CCC(=O)NC1=O)C2=O` (stereo partly drawn) [Compound 161], the remaining activity at 0.1 µM under setting [1] is 31%. Moreover, the DC50 under setting [2] lay within 10 to 25 nM. On the same counts, the results for `CCn1c2c(c3ccc(OCCOC4CC5(CCN(c6ccc(C(=O)N[C@H]7CC[C@H](Oc8ccc(C#N)c(Cl)c8)CC7)nn6)C5)C4)cc31)C(=O)N(C1CCC(=O)NC1=O)C2=O` (stereo partly drawn) [Compound 162] are 29% and 25 to 100 nM.

As to `CCn1c2c(c3ccc(OCCCC4CCN(c5ccc(C(=O)N[C@H]6CC[C@H](Oc7ccc(C#N)c(Cl)c7)CC6)nn5)CC4)cc31)C(=O)N(C1CCC(=O)NC1=O)C2=O` (stereo partly drawn) [Compound 163], the remaining activity at 0.1 µM under setting [1] came to 41%. On to `CCn1c2c(c3ccc(OCCOC4CC5(CCN(c6ccc(C(=O)N[C@H]7CC[C@H](N(C)c8ccc(C#N)c(Cl)c8)CC7)nn6)C5)C4)cc31)C(=O)N(C1CCC(=O)NC1=O)C2=O` (stereo partly drawn) [Compound 164], for which the remaining activity at 0.1 µM under setting [1] turned out to be 31%. For the same molecule, the DC50 under setting [2] lay within 10 to 25 nM.

As for `CCn1c2c(c3ccc(OCCCC4CCN(c5ccc(C(=O)N[C@H]6CC[C@H](N(C)c7ccc(C#N)c(Cl)c7)CC6)nn5)CC4)cc31)C(=O)N(C1CCC(=O)NC1=O)C2=O` (stereo partly drawn) [Compound 165], the remaining activity at 0.1 µM under setting [1] was 77%. `CCn1c2c(c3ccc(OCCN4CCC(C5CCN(c6ccc(C(=O)N[C@H]7CC[C@H](N(C)c8ccc(C#N)c(Cl)c8)CC7)nn6)CC5)CC4)cc31)C(=O)N(C1CCC(=O)NC1=O)C2=O` (stereo partly drawn) [Compound 166]: under setting [1], the remaining activity at 0.1 µM was determined as 47%. On the same count and under the same terms, then `CCn1c2c(c3ccc(OCCCN4CCC(C5CCN(c6ccc(C(=O)N[C@H]7CC[C@H](N(C)c8ccc(C#N)c(Cl)c8)CC7)nn6)CC5)CC4)cc31)C(=O)N(C1CCC(=O)NC1=O)C2=O` (stereo partly drawn) [Compound 167], with 78%. On to `Cn1c2c(c3ccc(OCCOC4CCN(c5ccc(C(=O)N[C@H]6CC[C@H](Oc7ccc(C#N)c(Cl)c7)CC6)nn5)CC4)cc31)C(=O)N(C1CCC(=O)NC1=O)C2=O` (stereo partly drawn) [Compound 168], for which the remaining activity at 0.1 µM (24 h, LNCaP.FGC cells, 100 nM, 24 hr, normalized to GAPDH, untreated cells = 100%; read-out: Androgen Receptor Remaining (%)) amounted to 20%. Also, under setting [3], the DC50 is 10 to 25 nM. With `Cn1c2c(c3ccc(OCCOC4CCN(c5ccc(C(=O)N[C@H]6CC[C@H](N(C)c7ccc(C#N)c(Cl)c7)CC6)nn5)CC4)cc31)C(=O)N(C1CCC(=O)NC1=O)C2=O` (stereo partly drawn) [Compound 169], the remaining activity at 0.1 µM under setting [1] amounted to 27%. Under setting [2], the DC50 lay in the range of 10 to 25 nM. Turning to `Cn1c2c(c3ccc(OCCOC4CC5(CCN(c6ccc(C(=O)N[C@H]7CC[C@H](Oc8ccc(C#N)c(Cl)c8)CC7)nn6)CC5)C4)cc31)C(=O)N(C1CCC(=O)NC1=O)C2=O` (stereo partly drawn) [Compound 170], the DC50 under setting [3] is 25 to 100 nM. On to `Cn1c2c(c3ccc(OCCOC4CC5(CCN(c6ccc(C(=O)N[C@H]7CC[C@H](N(C)c8ccc(C#N)c(Cl)c8)CC7)nn6)CC5)C4)cc31)C(=O)N(C1CCC(=O)NC1=O)C2=O` (stereo partly drawn) [Compound 171], for which the DC50 under setting [2] was 25 to 100 nM. Still for that read-out and setting: then `CCn1c2c(c3ccc(OCCCOC4CC5(CCN(c6ccc(C(=O)N[C@H]7CC[C@H](Oc8ccc(C#N)c(Cl)c8)CC7)nn6)CC5)C4)cc31)C(=O)N(C1CCC(=O)NC1=O)C2=O` (stereo partly drawn) [Compound 172], with 25 to 100 nM. With `Cn1c2c(c3ccc(OCCOC4CC5(CCN(c6ccc(C(=O)N[C@H]7CC[C@H](Oc8ccc(C#N)c(Cl)c8)CC7)nn6)C5)C4)cc31)C(=O)N(C1CCC(=O)NC1=O)C2=O` (stereo partly drawn) [Compound 174], the DC50 under setting [3] lay in the range of 25 to 100 nM. In the case of `Cn1c2c(c3ccc(OCCOC4CC5(CCN(c6ccc(C(=O)N[C@H]7CC[C@H](N(C)c8ccc(C#N)c(Cl)c8)CC7)nn6)C5)C4)cc31)C(=O)N(C1CCC(=O)NC1=O)C2=O` (stereo partly drawn) [Compound 175], the DC50 under setting [2] lay within 10 to 25 nM. For `CCn1c2c(c3ccc(OCCCOC4CC5(CCN(c6ccc(C(=O)N[C@H]7CC[C@H](Oc8ccc(C#N)c(Cl)c8)CC7)nn6)C5)C4)cc31)C(=O)N(C1CCC(=O)NC1=O)C2=O` (stereo partly drawn) [Compound 176], under setting [2], the DC50 lay in the range of 25 to 100 nM. Regarding `CCn1c2c(c3ccc(OCCCOC4CC5(CCN(c6ccc(C(=O)N[C@H]7CC[C@H](N(C)c8ccc(C#N)c(Cl)c8)CC7)nn6)C5)C4)cc31)C(=O)N(C1CCC(=O)NC1=O)C2=O` (stereo partly drawn) [Compound 177], the DC50 under setting [2] was in the range of 25 to 100 nM. Turning to `Cn1c2c(c3ccc(OCCCOC4CC5(CCN(c6ccc(C(=O)N[C@H]7CC[C@H](N(C)c8ccc(C#N)c(Cl)c8)CC7)nn6)C5)C4)cc31)C(=O)N(C1CCC(=O)NC1=O)C2=O` (stereo partly drawn) [Compound 178], under setting [2], the DC50 was in the range of 10 to 25 nM. On to `Cn1c2c(c3ccc(OCCCOC4CC5(CCN(c6ccc(C(=O)N[C@H]7CC[C@H](Oc8ccc(C#N)c(Cl)c8)CC7)nn6)C5)C4)cc31)C(=O)N(C1CCC(=O)NC1=O)C2=O` (stereo partly drawn) [Compound 179], for which the DC50 under setting [3] was 25 to 100 nM. On to `CCn1c2c(c3ccc(OCCN4CCC5(CC4)CCN(c4ccc(C(=O)N[C@H]6CC[C@H](N(C)c7ccc(C#N)c(Cl)c7)CC6)nn4)CC5)cc31)C(=O)N(C1CCC(=O)NC1=O)C2=O` (stereo partly drawn) [Compound 180], for which the DC50 under setting [2] is less than 10 nM. On to `CCn1c2c(c3ccc(OCCCN4CCC5(CC4)CCN(c4ccc(C(=O)N[C@H]6CC[C@H](N(C)c7ccc(C#N)c(Cl)c7)CC6)nn4)CC5)cc31)C(=O)N(C1CCC(=O)NC1=O)C2=O` (stereo partly drawn) [Compound 181], for which the DC50 under setting [2] was less than 10 nM.

In the case of `CCn1c2c(c3ccc(OCCN4CCC5(CC4)CCN(c4ccc(C(=O)N[C@H]6CC[C@H](Oc7ccc(C#N)c(Cl)c7)CC6)nn4)CC5)cc31)C(=O)N(C1CCC(=O)NC1=O)C2=O` (stereo partly drawn) [Compound 182], the DC50 under setting [2] was less than 10 nM. The same measure, in the same setting: in the case of `CCn1c2c(c3ccc(OCCCN4CCC5(CC4)CCN(c4ccc(C(=O)N[C@H]6CC[C@H](Oc7ccc(C#N)c(Cl)c7)CC6)nn4)CC5)cc31)C(=O)N(C1CCC(=O)NC1=O)C2=O` (stereo partly drawn) [Compound 183] it was 10 to 25 nM; in that of `CCn1c2c(c3ccc(OCCCCOC4CCN(c5ccc(C(=O)N[C@H]6CC[C@H](Oc7ccc(C#N)c(Cl)c7)CC6)nn5)CC4)cc31)C(=O)N(C1CCC(=O)NC1=O)C2=O` (stereo partly drawn) [Compound 185], 25 to 100 nM. On the same count and under the same terms, in the case of `Cn1c2c(c3ccc(OCCCCOC4CCN(c5ccc(C(=O)N[C@H]6CC[C@H](N(C)c7ccc(C#N)c(Cl)c7)CC6)nn5)CC4)cc31)C(=O)N(C1CCC(=O)NC1=O)C2=O` (stereo partly drawn) [Compound 186] it was 10 to 25 nM. For `Cn1c2c(c3ccc(OCCCCOC4CCN(c5ccc(C(=O)N[C@H]6CC[C@H](Oc7ccc(C#N)c(Cl)c7)CC6)nn5)CC4)cc31)C(=O)N(C1CCC(=O)NC1=O)C2=O` (stereo partly drawn) [Compound 187], the DC50 under setting [3] lay within 25 to 100 nM.
